Melting point data for 6 compounds are collected here from US6362180B1, “Imidazopyridines for the treatment of neurological disorders” (Bristol-Myers Squibb Pharma Company, priority 1997, dated 2002).

As usually defined, the melting point is the temperature, or range, at which the solid turns liquid. Compound `CCc1nc2c(-c3cc4c(c(Br)c3C)OCC4)ncnc2n1C(C1CC1)C1CC1` [Example 5232, 6-(7-bromo-6-methyl-2,3-dihydrobenzofuran-5-yl)-9-dicyclopropylmethyl-8-ethylpurine] displayed a melting point of 179 to 180 °C. The result for `CCc1nc2c(-c3cc4c(cc3C)OCC4)ncnc2n1C(C1CC1)C1CC1` [Example 5001, 9-Dicyclopropylmethyl-8-ethyl-6-(6-methyl-2,3-dihydrobenzofuran-5-yl)purine] reads 147 to 148 °C; that for `CCCCC(CC)n1c(CC)nc2c(-c3c(C)cc(C)cc3C)ncnc21` (stereo not drawn) [Example 2, 8-Ethyl-9-(1-ethylpentyl)-6-(2,4,6-trimethylphenyl)purine], 99 to 100 °C; that for `CCc1nc2c(-c3ccc(OC)cc3Cl)ncnc2n1C(C1CC1)C1CC1` [Example 831, 6-(2-Chloro-4-methoxyphenyl)-9-dicyclopropylmethyl-8-ethylpurine], 139 to 140 °C. The result for `CCc1nc2c(-c3cc4cc(Br)oc4cc3C)ncnc2n1C(C1CC1)C1CC1` [Example 5231, 6-(2-bromo-6-methylbenzofuran-5-yl)-9-dicyclopropylmethyl-8-ethylpurine] reads 177 to 178 °C. The same measure for `CCc1nc2c(-c3cc4ccoc4cc3C)ncnc2n1C(C1CC1)C1CC1` [Example 5201, 9-dicyclopropylmethyl-8-ethyl-6-(6-methylbenzofuran-5-yl)purine]: 139 to 141 °C.
